The values that follow come from US6376488B1, “Benzoxazine α-1 adrenergic compounds” (Abbott Laboratories, priority 2000, dated 2002).

Structures can show the parent of a compound that is named as a salt.

For the compound `COc1cccc2c1N1CCN(CCCCn3c(=O)[nH]c4c(sc5ncccc54)c3=O)CC1CO2` (single isomer, unassigned; (-)) (as salt: hydrochloride) [Example 11, (−) 3-[4-(10-methoxy-1,2,4a,5-tetrahydropyrazino[2,1-c][1,4]benzoxazin-3(4H)-yl)butyl]pyrido[3′,2′:4.5]thieno[3,2-d]pyrimidine-2,4(1H,3H)-dione trihydrochloride], the melting point (as a rule, the temperature of the solid-liquid transition) lay in the range of 207 to 210 °C. As for `COc1cccc2c1N1CCN(CCCCn3c(=O)[nH]c4c(sc5cccnc54)c3=O)CC1CO2` (single isomer, unassigned; (+)) (as salt: hydrochloride) [Example 14, (+) 3-[4-(10-methoxy-1,2,4a,5-tetrahydropyrazino[2,1-c][1,4]benzoxazin-3(4H)-yl)butyl]pyido [2′,3′:4,5]thieno[3,2-d]pyrimidine-2,4(1H,3H)-dione trihydrochloride], the figure is 280 to 282 °C; as for `O=c1[nH]c2c(sc3cccnc32)c(=O)n1CCCCN1CCN2c3ccccc3OCC2C1` (single isomer, unassigned; (-)) (as salt: hydrochloride) [Example 4, (−) 3-[4-(1.2,4a,5-tetrahydropyrazino[2,1-c][1,4benzoxazin-3(4H)-yl)butyl]pyrido[2′,3′:4,5]thieno[3,2-d]pyrimidine-2,4(1H,3H)-dione dihydrochloride], 282 to 284 °C.
